Entries after “also recorded” stand apart in the source; their conditions may differ. Read-outs that look alike come from different tables or passages of the source.
Legend:
[1] = estimation of human plasma concentration following topical administration; details: for Estimated AUC24 h / Estimated Css: 70 kg
Method: The plasma clearance (CLhuman) was estimated from the in vitro and preclinical pharmacokinetic studies.
An estimated skin flux prediction was conducted, assuming a 2-hour lag time and receiving fluid levels obtained every two hours at the LLOQ level for 16 hours, leading to a calculated flux of 0.048 ng/cm^2/h.
Healthy skin is an effective protective barrier to most xenobiotics; therefore the relevance of a flux value derived from the ex vivo skin penetration assay, which uses healthy human skin from abdominoplasty surgeries, may not translate to what is observed following application onto unhealthy skin. […] Calculation of human systemic exposure with a 100-fold increase in flux has also been performed to account for the worst case estimation. A 10% body surface area (1800 cm^2) in human was used for this estimation. Therefore, for the purpose of safety margin estimation and considering the conditions explained herein, the estimated Css,human is 0.34 ng/mL with the corresponding AUCss, 24 h is 8.2 ng*h/mL. In clinical practice, topical treatment for atopical dermatitis can be up to 50% BSA (9000 cm2) and therefore corresponding estimated Css,human and AUCss, 24 h with 10-fold increase in flux is 0.17 ng/mL and 4.1 ng*h/mL.

[2] = test system: IL-17A; test: CD4+ T cell IL17 assay; assay type: cell-based, human; details: for IC50: T-cell
Method: Therefore, compounds are evaluated for their ability to reduce IL-17 production from CD4+ T cells stimulated under Th17-skewing conditions. Cryopreserved human CD4^+ T cells (AllCells, LLC, Alameda, CA and Stemcell Technologies, Inc. Vancouver, Canada) were differentiated to the Th17 subtype by culturing for 5 days in CD3-coated tissue culture plates (2 μg/mL) in Iscove's modified Dulbecco's medium (IMDM) containing 10% HI-FBS, 55 μM 2-mercaptoethanol and soluble anti-CD28 (3 μg/mL) in the presence of a Th17 skewing cocktail, [IL-1β (10 ng/mL), IL-6 (30 ng/mL), TGFβ (0.5 ng/mL), IL-21 (10 ng/mL), IL-23 (10 ng/mL), anti-IFNγ (10 μg/mL) and anti-IL-4 (10 μg/mL)] in the presence or absence of serially diluted compounds. Secretion of IL-17 from polarized CD4+ T-cells was measured in the culture media using an MSD (Meso Scale Discovery) detection system following 5 day exposure toTh17 polarization reagents with and without compounds.

[3] = flux 0.48 (10-fold increase), dose area 9000 cm^2, clearance 6 ml/min/kg
[4] = flux 4.8 (100-fold increase), dose area 1800 cm^2, clearance 6 ml/min/kg

In the case of `CC(C)c1c(O)cc(-c2cc3ccccc3cn2)cc1O`, the “lowest predicted human clearance” value ([1]; allometric scaling with plasma protein binding correction) is reported as 6 mL/min/kg, the “Topical Skin Flux (calculated)” value ([1]; assuming 2-hour lag time and receiving fluid levels at the LLOQ for 16 hours) is reported as 0.048 ng/cm^2/h and the “Estimated AUC24 h” value [1, 3] is reported as 4.1 ng·h/mL. The “Estimated Css” value [1, 3] was 0.17 ng/mL, the “Estimated AUC24 h” value [1, 4] was 8.2 ng·h/mL and the “Estimated Css” value [1, 4] was 0.34 ng/mL. The IC50 ([2]; MSD-based readout of secreted IL-17A from Th17-polarized primary human CD4+ peripheral blood T cells, read-out: IL-17A pIC50 (converted)) was 3.98 nM, the IC50 ([2]; primary human peripheral blood CD4+ T-cells, read-out: IL-17A inhibition IC50) was 140 nM and the IL-17A production ([2]; Th17-skewing conditions, applied throughout culture) was “suppression of IL-17A; also recorded: reduces IL-17A production in a dose-dependent manner”.

Source: patent publication US20220017468A1, “ISOQUINOLINE COMPOUNDS AND THEIR USE IN TREATING AhR IMBALANCE” (Dermavant Sciences GmbH, priority 2020, published 2022)
